Experimental data taken from patent publication US9724340B2, “Antitussive compositions and methods” (Attenua, Inc., priority 2015, dated 2017).

System: conscious guinea pigs
Experiment: Citric acid inhalation cough model in conscious guinea pigs
Assay type: in vivo, guinea pig
Conditions: 30 min before citric acid aerosols 0.01M-0.3M
Protocol: Cough suppression was evaluated in conscious guinea pigs using a citric acid inhalation model (Smith et al., 2012). Guinea pigs were pretreated intraperitoneally with drug vehicle (saline), α7 PHA543613 (10 mg/kg) (FIG. 3), or (2S,3R)—N-(2-(3-pyridinyl)methyl)-1-azabicyclo[2.2.2]oct-3-yl)benzofuran-2-carboxamide (30 mg/kg) (FIG. 4). Respiration and cough reflexes were measured using a Buxco inhalation chamber connected to a Biopac data acquisition system. Thirty minutes after vehicle or drug administration, animals were challenged in sequence with ascending aerosol concentrations of citric acid (0.01M-0.3M), with each aerosol delivered for 5 minutes and with 5 minutes interval in between challenges. The cumulative coughs evoked were quantified and results are presented as a mean±standard error of the mean (SEM) of n experiments, where n refers to a single animal). Studies were performed using a nonpaired parallel group design. Differences amongst group means were evaluated by t-test or ANOVA, with a p<0.05 considered statistically significant which is represented by an asterisk (*) in FIG. 3 and FIG. 4.

## O=C(N[C@H]1CN2CCC1CC2)c1cc2ccoc2cn1 [PHA543613]
10 mg/kg intraperitoneally, FIG. 3
  cumulative citric acid evoked coughs (in words): markedly inhibited citric acid evoked coughs

## O=C(N[C@@H]1C2CCN(CC2)[C@H]1Cc1cccnc1)c1cc2ccccc2o1 [(2S,3R)—N-(2-((3-pyridinyl)methyl)-1-azabicyclo[2.2.2]oct-3-yl)benzofuran-2-carboxamide]
30 mg/kg intraperitoneally, FIG. 4
  cumulative citric acid evoked coughs (in words): markedly inhibited citric acid evoked coughs
